System: A375 melanoma cells
Experiment: subG1 cell cycle FACS apoptosis assay, A375 melanoma cells
Type: cell-based, human
Details: A375, Protocol A
Protocol: To transfer adherent cells (A375 and BxPC-3 cells) after culture, cells are washed twice with PBS. To detach the cells, the enzyme biotase is used according to the manufacturer's instructions. For this purpose, after washing with PBS, the cells are mixed with biotase (5 ml of biotase solution per 75 cm^2 surface of the cell culture bottles) and incubated for 5 min at 37 degrees Celsius, and the biotase is separated by centrifugation. Cells cultivated in suspension (MEC-1 and lymphocytes) were transferred by dilution. The cells are suspended in culture medium and counted, each time 1.5×10^5 cells/cm^2 are seeded in 48-well plates and cultured for between 1.5 and 24 hours at 37 degrees Celsius, 5% CO2. Peptides are pre-diluted from stock solution with culture medium and 200 μl of peptide solution added so that final concentrations of 30 to 500 μM peptide are present in at most 1% (v/v) DMSO. As control solutions, culture medium without peptide (DMSO-containing) in culture medium or etoposide solution is added. After incubating the cells for several hours, the cell supernatant is transferred to a FACS tube for each batch and, after washing the cells with PBS, the wash solution is added. Then the cells are incubated with 200 μl of biotase solution for 10 min, 37° C., the cells with the biotase are also transferred to the FACS tube and the cells are collected by centrifugation for 5 min. The cell pellet is suspended in 500 μl of serum-free culture medium, then 1.5 ml of cold 80% ethanol (ethanol/PBS-80/20, v/v, stored at −20° C.) is added, the FACS tubes sealed and stored at −20 degrees Celsius for 15 to 18 h. Thereafter, the cells are centrifuged for 5 minutes at 120 g, suspended after removal of the supernatant in 2 ml PBS and incubated at 37 degrees Celsius for 30 minutes. After re-centrifugation, the cells are suspended in 0.5 ml DAPI solution and incubated for 15 min at 20 degrees Celsius in the dark. Thereafter, the cells are stored dark for a maximum of four hours in an ice bath, followed by the FACS analysis.
The adherent cells (A375 and BxPC-3 cells and MDA-MB-231, respectively) are seeded 24 hours before induction in 6-well plates in culture medium. For this, the cells are washed with PBS, then incubated with trypsin/EDTA solution at 37 degrees Celsius and suspended in culture medium. The 6-well plates are loaded with 1×10^5 cells/cm^2 in culture medium and the cells incubated for 24 hours until induction with the peptides in the incubator. For induction, the peptides are diluted in fresh culture medium. As control solutions, culture medium without peptide (DMSO-containing) in culture medium or etoposide solution is added. The cells are washed with PBS. Thereafter the peptide solution in culture medium is added to the cells. After incubation in the incubator (37° C., 5% CO2) between 1.5 and 24 hours, the cell supernatant is transferred to 15 ml centrifuge tubes, the cells are washed with 0.75 ml PBS and then with 0.5 ml versene solution. Both washings are combined with the cell supernatant. The cells are then added with 0.5 ml of trypsin/EDTA solution and incubated at about 37° C. for at most 10 minutes until the cells detached. The cell suspension is combined with cell supernatant and washings and centrifuged at about 130 g for about 10 minutes. After removing the supernatant, the cells are suspended in 400 μl of cell culture medium (without serum) and mixed with 1.2 ml of 80% ethanol/20% PBS (v/v) and incubated for 1 to 7 days at −20° C. For analysis, the cells are centrifuged at 130 g for 10 min, suspended in 2 ml PBS, and centrifuged again for 5 min. The cells are suspended in 700 μl PI buffer and incubated for 10 min at 37° C. in the dark. Subsequently, the cells are stored dark for a maximum of four hours in an ice bath, then the FACS analysis is performed.
The proportion of cells which have died was determined by two methods, both rely on the analysis of cells by flow cytometry, often called FACS analysis. […]

| Substance | apoptosis efficiency (subG1), comparison in words (200 μM, about 24 hours, FIG. 4) | apoptosis level (subG1), comparison in words (100 μM, FIG. 6) | apoptosis efficiency (subG1) in view of Peptide SEQ C1 (100 μM, about 24 hours, FIG. 4) | apoptosis level (subG1) (200 μM and above, incubation about 3 hours, FIG. 6) | apoptosis efficiency (subG1) in view of Peptide SEQ C1 (200 μM, about 24 hours, FIG. 4) | apoptosis efficiency (subG1), comparison in words (200 μM, incubation 1.5 h, 3 h and 6 h, FIG. 6) | apoptosis efficiency (subG1), comparison in words (300 μM, all incubation times (1.5, 3, 6, 24 h), FIG. 6) | apoptosis efficiency (subG1), comparison in words (any concentration (50, 100, 200 μM), about 24 hours, FIG. 4) | apoptosis efficiency (subG1), comparison in words (200 μM, incubation 24 h, FIG. 6) |
| --- | --- | --- | --- | --- | --- | --- | --- | --- | --- |
| k-s-q-t-v-k-k-w-m-v-v-y-f-r-k [SEQID No 29] | higher efficiency at 200 μM in view of Peptide SEQID No 37 | – | – | – | – | – | – | – | – |
| k-s-q-t-v-q-k-w-m-v-v-y-f-r-k [SEQID No 36] | – | slightly improved apoptosis level in view of peptide SEQID NO 27 | at least fivefold | high apoptosis level | at least tenfold | improvement over Peptides SEQID NO 37 and SEQID NO 27 | improvement with regard to all incubation times over Peptides SEQID NO 37 and SEQID NO 27 | clear improvement over Peptides SEQID NO 37 and SEQID NO 29 at any concentration | – |
| s-q-t-v-q-k-w-m-v-v-y-f-r-k [SEQID No 37] | – | slightly improved apoptosis level in view of peptide SEQID NO 27 | – | – | – | – | – | – | best results |

Reference: patent US20220160812A1, “A PHARMACEUTICALLY ACTIVE SUBSTANCE” (Cytopharma GmbH, priority 2019, published 2022)
